According to PubChem BioAssay AID248 (DTP/NCI, 2004):
Values joined by “and” are separate entries in the source; they are usually repeats but may differ in a detail not shown here. Identical values can stand only once. Toxic doses and inconclusive results are not listed. No stated cut-off is given here; in the data, active means T/C of 150% or more; inactive means T/C below 125%.

System: L1210 leukemia ip in BDF1 mice, survival T/C
Assay: NCI In Vivo Anticancer Drug Screen. Data for tumor model L1210 Leukemia (intraperitoneal) in B6D2F1 (BDF1) mice
Settings: endpoint: mean survival time, higher = longer survival
Method in brief: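 Each compound was tested against a transplantable tumor grown in mice. The endpoint was survival, with treated animals benchmarked against vehicle controls as a simple ratio.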

[1] = dose: 50.0 mg/kg/injection, schedule: Q04DX002 (ip), vehicle: saline with Tween-80
[2] = dose: 100.0 mg/kg/injection, schedule: Q04DX002 (ip), vehicle: saline with Tween-80
[3] = dose: 200.0 mg/kg/injection, schedule: Q04DX002 (ip), vehicle: saline with Tween-80
[4] = dose: 100.0 mg/kg/injection, schedule: Q04DX003 (ip), vehicle: saline
[5] = dose: 200.0 mg/kg/injection, schedule: Q04DX003 (ip), vehicle: saline
[6] = dose: 400.0 mg/kg/injection, schedule: Q04DX003 (ip), vehicle: saline
[7] = dose: 100.0 mg/kg/injection, schedule: Q01DX009 (ip), vehicle: saline with Tween-80
[8] = dose: 200.0 mg/kg/injection, schedule: Q01DX009 (ip), vehicle: saline with Tween-80
[9] = dose: 100.0 mg/kg/injection, schedule: Q01DX001 (ip), vehicle: Klucel (hydroxypropylcellulose) (HPC)
[10] = dose: 200.0 mg/kg/injection, schedule: Q01DX001 (ip), vehicle: Klucel (hydroxypropylcellulose) (HPC)
[11] = dose: 400.0 mg/kg/injection, schedule: Q01DX001 (ip), vehicle: Klucel (hydroxypropylcellulose) (HPC)
[12] = dose: 100.0 mg/kg/injection, schedule: Q04DX002 (ip), vehicle: Klucel (hydroxypropylcellulose) (HPC)
[13] = dose: 200.0 mg/kg/injection, schedule: Q04DX002 (ip), vehicle: Klucel (hydroxypropylcellulose) (HPC)
[14] = dose: 400.0 mg/kg/injection, schedule: Q04DX002 (ip), vehicle: Klucel (hydroxypropylcellulose) (HPC)
[15] = dose: 400.0 mg/kg/injection, schedule: Q01DX009 (ip), vehicle: saline with Tween-80
[16] = dose: 100.0 mg/kg/injection, schedule: Q04DX003 (ip), vehicle: saline with Tween-80
[17] = dose: 200.0 mg/kg/injection, schedule: Q04DX003 (ip), vehicle: saline with Tween-80
[18] = dose: 400.0 mg/kg/injection, schedule: Q04DX003 (ip), vehicle: saline with Tween-80
[19] = dose: 100.0 mg/kg/injection, schedule: Q01DX009 (ip), vehicle: Klucel (hydroxypropylcellulose) (HPC)
[20] = dose: 100.0 mg/kg/injection, schedule: Q04DX003 (ip), vehicle: Klucel (hydroxypropylcellulose) (HPC)
[21] = dose: 200.0 mg/kg/injection, schedule: Q01DX009 (ip), vehicle: Klucel (hydroxypropylcellulose) (HPC)
[22] = dose: 200.0 mg/kg/injection, schedule: Q04DX003 (ip), vehicle: Klucel (hydroxypropylcellulose) (HPC)
[23] = dose: 400.0 mg/kg/injection, schedule: Q01DX009 (ip), vehicle: Klucel (hydroxypropylcellulose) (HPC)
[24] = dose: 400.0 mg/kg/injection, schedule: Q04DX003 (ip), vehicle: Klucel (hydroxypropylcellulose) (HPC)
[25] = dose: 100.0 mg/kg/injection, schedule: Q01DX009 (ip), vehicle: saline
[26] = dose: 200.0 mg/kg/injection, schedule: Q01DX009 (ip), vehicle: saline
[27] = dose: 400.0 mg/kg/injection, schedule: Q01DX009 (ip), vehicle: saline

Measured: T/C

Brc1ccc2c(c1)-c1cc(Br)ccc1C2
inactive: [1] 95 % of control | [2] 100 % of control | [3] 103 % of control | dose: 400.0 mg/kg/injection, schedule: Q04DX002 (ip), vehicle: saline with Tween-80 95 % of control

CN(C)C(CCc1ccccc1)C(=O)O (stereo unspecified)
inactive: dose: 100.0 mg/kg/injection, schedule: Q01DX009 (ip), vehicle: saline sonified 102 % of control | [4] 102 % of control | dose: 200.0 mg/kg/injection, schedule: Q01DX009 (ip), vehicle: saline sonified 95 % of control | [5] 109 % of control | dose: 400.0 mg/kg/injection, schedule: Q01DX009 (ip), vehicle: saline sonified 101 % of control | [6] 109 % of control

C=CCCCCC/C=C/CCCCCC
inactive: [7] 89 % of control | [8] 92 % of control

COc1ccc(CN(CCN(C)C)c2ccccn2)cc1
inactive: dose: 12.5 mg/kg/injection, schedule: Q01DX009 (ip), vehicle: Klucel (hydroxypropylcellulose) (HPC) 97 % of control | dose: 12.5 mg/kg/injection, schedule: Q04DX003 (ip), vehicle: Klucel (hydroxypropylcellulose) (HPC) 94 % of control | dose: 25.0 mg/kg/injection, schedule: Q01DX009 (ip), vehicle: Klucel (hydroxypropylcellulose) (HPC) 94 % of control | dose: 25.0 mg/kg/injection, schedule: Q04DX003 (ip), vehicle: Klucel (hydroxypropylcellulose) (HPC) 93 % of control | dose: 50.0 mg/kg/injection, schedule: Q01DX009 (ip), vehicle: Klucel (hydroxypropylcellulose) (HPC) 93 % of control | dose: 50.0 mg/kg/injection, schedule: Q04DX003 (ip), vehicle: Klucel (hydroxypropylcellulose) (HPC) 93 % of control and 94 % of control

O=Nc1ccc(O)cc1Br
inactive: [9] 100 % of control | [10] 97 % of control | [11] 100 % of control and 92 % of control

CN(C)C(=O)Nc1ccc(C#N)cc1
inactive: [12] 89 % of control | [13] 103 % of control | [14] 106 % of control

CCOC(=O)CCC(NC(=O)c1ccccc1NC)C(=O)OCC (stereo unspecified)
inactive: [7] 94 % of control | [8] 92 % of control | [15] 101 % of control

CC(C)Oc1ccc(C(N)=S)c2ccccc12
inactive: [9] 105 % of control | [10] 109 % of control | [11] 102 % of control

CCC(C)(C)c1ccc(OCCCCCCN2CCN(c3ccc(C)c(Cl)c3)CC2)cc1
inactive: dose: 75.0 mg/kg/injection, schedule: Q01DX001 (ip), vehicle: saline 102 % of control | dose: 150.0 mg/kg/injection, schedule: Q01DX001 (ip), vehicle: saline 110 % of control

Cn1nc(NC(=O)C(F)(F)F)c2nccnc21
inactive: [7] 95 % of control | [16] 100 % of control | [8] 94 % of control | [17] 101 % of control | [18] 108 % of control

O=CO
inactive: dose: 100.0 mg/kg/injection, schedule: Q01DX001 (ip), vehicle: saline 100 % of control | dose: 200.0 mg/kg/injection, schedule: Q01DX001 (ip), vehicle: saline 98 % of control | dose: 400.0 mg/kg/injection, schedule: Q01DX001 (ip), vehicle: saline 93 % of control

CCCCCCCCCCCCCCCCCCN=C(Cl)Cl
inactive: [9] 88 % of control | [10] 96 % of control | [11] 98 % of control

O=C1NCC/C1=C\c1cc2c(cc1[N+](=O)[O-])OCO2
inactive: dose: 50.0 mg/kg/injection, schedule: Q01DX001 (ip), vehicle: carboxymethylcellulose (CMC) 88 % of control | dose: 100.0 mg/kg/injection, schedule: Q01DX001 (ip), vehicle: carboxymethylcellulose (CMC) 90 % of control | dose: 200.0 mg/kg/injection, schedule: Q01DX001 (ip), vehicle: carboxymethylcellulose (CMC) 100 % of control | dose: 400.0 mg/kg/injection, schedule: Q01DX001 (ip), vehicle: carboxymethylcellulose (CMC) 90 % of control

CC(=O)CC(=O)NCCNC(=O)CC(C)=O
inactive: [4] 101 % of control | [5] 100 % of control | [6] 100 % of control

Cc1ccc(SSc2ccc(C)cc2[N+](=O)[O-])c([N+](=O)[O-])c1
inactive: [19] 92 % of control | [20] 97 % of control | [21] 91 % of control | [22] 90 % of control | [23] 90 % of control | [24] 94 % of control

COc1ccc(Cc2cc3cc(OC)c(OC)cc3cn2)cc1OC
inactive: [7] 103 % of control | [16] 93 % of control | [8] 105 % of control | [17] 104 % of control | [15] 121 % of control | [18] 90 % of control

O=C(COc1ccc(F)cc1F)Oc1ccc([N+](=O)[O-])cc1
inactive: [12] 101 % of control | [13] 104 % of control | [14] 97 % of control

CCCCNC(=O)Nc1ccccc1CC
inactive: [19] 93 % of control | [20] 95 % of control | [21] 96 % of control | [22] 106 % of control | [23] 93 % of control | [24] 97 % of control

CN1C(=O)OC2(CCN(Cc3ccc([N+](=O)[O-])o3)CC2)C1=O
inactive: [20] 98 % of control | [22] 96 % of control | [24] 98 % of control

CCc1n[nH]c(C(N)=O)c1O
inactive: dose: 100.0 mg/kg/injection, schedule: Q01DX001 (ip), vehicle: gum acacia 103 % of control | [25] 108 % of control | dose: 200.0 mg/kg/injection, schedule: Q01DX001 (ip), vehicle: gum acacia 101 % of control | [26] 104 % of control | dose: 400.0 mg/kg/injection, schedule: Q01DX001 (ip), vehicle: gum acacia 106 % of control | [27] 100 % of control

Clc1ccc(N=NNc2ccc(Cl)cc2)cc1
inactive: [7] 91 % of control | [16] 96 % of control | [8] 92 % of control | [17] 105 % of control | [15] 92 % of control | [18] 92 % of control

COc1cc(-c2cc(=O)c3c(O)cc(O)c(C4OC(CO)C(O)C(O)C4O)c3o2)ccc1O (stereo unspecified)
inactive: [25] 108 % of control | [26] 108 % of control | [27] 103 % of control

CCCCCC(=O)NCC(=O)O
inactive: [16] 94 % of control | [17] 97 % of control | [18] 94 % of control

O=C(O)c1c(Cl)[nH]c2ccccc12
inactive: [1] 101 % of control | [2] 97 % of control | [3] 89 % of control

Cc1cc(OC(=O)c2ccc(N(C)C)cc2)ccc1[N+](=O)[O-]
inactive: [19] 95 % of control | [20] 96 % of control | [21] 94 % of control | [22] 91 % of control | [23] 97 % of control | [24] 95 % of control

COC(=O)C1(C(=O)OC)C2CCCCC21 (stereo unspecified)
inactive: [9] 90 % of control | [20] 96 % of control | [10] 103 % of control | [22] 104 % of control | [11] 98 % of control | [24] 98 % of control

CCCOP(=O)(OCCC)C(OC(=O)C(C)C)=C(C)C
inactive: [16] 97 % of control | [17] 94 % of control

O=C(O)c1cccc(NC(C(=O)c2ccccc2)c2ccccc2)c1 (stereo unspecified)
inactive: dose: 50.0 mg/kg/injection, schedule: Q01DX001 (ip), vehicle: Klucel (hydroxypropylcellulose) (HPC) 102 % of control | [9] 102 % of control | [10] 102 % of control

O=c1[nH]cc(CCc2ccccc2)c(=O)[nH]1
inactive: [19] 105 % of control | [20] 94 % of control | [21] 96 % of control | [22] 94 % of control | [23] 98 % of control | [24] 93 % of control

CCC(C)C(CCN(C)C)(CNC(=O)CN(CC)CC)c1cccc2ccccc12 (stereo unspecified)
inactive: [25] 96 % of control | [26] 91 % of control

COc1ccc2c(n1)Sc1c(Cl)nc(Cl)nc1N2
inactive: [9] 95 % of control | [10] 93 % of control | [11] 98 % of control

Nc1nc(N)c2c(n1)CCP(c1ccccc1)C2 (stereo unspecified)
inactive: dose: 12.5 mg/kg/injection, schedule: Q04DX003 (ip), vehicle: saline with Tween-80 98 % of control | dose: 25.0 mg/kg/injection, schedule: Q04DX003 (ip), vehicle: saline with Tween-80 96 % of control | dose: 50.0 mg/kg/injection, schedule: Q04DX003 (ip), vehicle: saline with Tween-80 95 % of control
